Results from patent publication US5731334A, “Method for treating cancer using taxoid onium salt prodrugs” (priority 1995, dated 1998).

Columns and labels:
SK-Mel-28 melanoma cells = assay: XTT dye binding cytotoxicity assay, SK-Mel-28; format: cell-based; details: Homo sapiens; SK-Mel-28, melanoma; 72 h; read-out: IC50
Method: (§1) All cell lines described herein were obtained from the ATCC and maintained in media formulations as recommended by the supplier. The cell lines were tested for mycoplasma contamination prior to incubation at 37° C. in 5% carbon dioxide. Normal human dermal fibroblasts, peripheral blood lymphoblasts and mammary epithelial cells were obtained from Clonogenic Cor., San Diego, Calif. and were maintained under the above incubation conditions in special media provided by the supplier.
(§2) Antiproliferative activities of the onium salts were determined using the XTT dye binding assay. Cells were harvested with trypsin/EDTA (Irvine Scientific), washed, resuspended in the appropriate medium, and counted in a hemocytometer using Trypan Blue to determine viability. Then 10^4 cells/well were added to 96 well microtiter plates and incubated for 24 hours before addition of drug at concentrations in the range of 10^-4 to 10^-13 molar by direct addition from DMSO solutions. After 72 hours, XTT binding dye was added and incubation was continued for 4 hours. The inhibition of cell proliferation was quantified using a Molecular Devices Microplate Reader. The absorbance of XTT was measured at […]. The concentration of drug which inhibited growth of cells by 50% was calculated from duplicated determinations.

[1] = tested on: HT-29 colon carcinoma cells; assay: XTT dye binding cytotoxicity assay, HT-29; format: cell-based; details: Homo sapiens; HT-29, colon carcinoma; 72 h; read-out: IC50
Method: as §1, §2

[2] = tested on: A549 lung adenocarcinoma tumor xenograft; assay: Human lung adenocarcinoma A549 xenograft in nude mice; details: 1.0 mM, 400 μL i.p. days 1, 3, 5, 7, 9, 11
Method: (§3) Athymic nude mice were purchased from Harlan-Sprague-Dawley. The animals were housed in microisolated cases under positive air pressure and all manipulations and drug treatments were performed in a laminar flow cabinet. Tumor cells were grown under the above tissue culture conditions. Cell suspensions in RPMI medium were injected S./C. Treatment was started one day after inoculation by i.p. injection of 400 μl drug solutions. Tumors were measured 3 times weekly in two dimensions, using calipers and tumor volume as calculated using the formula (V=w^2 ×L×(3.142).
The tumor model was generated from A549 cell line, an ATTC that was maintained under standard cell proliferation conditions (37° C., 5% carbon dioxide in sterile air). Each cohort was comprised of six randomly chosen female athymic nude mice, for a total population size of twenty four mice. Hemocytometer counted cells, suspended in Hanks mediun (Gibco, Grand Island N.Y.) were implated S.C. (10^6 cells in 0.4 mL per mouse). Solid tumor growth was measured on each third day. Equimolar amounts of the test compounds (1.0 mM, 400 μL) were injected i.p. on days 1, 3, 5, 7, 9, and 11 using the following media:
(Δ): Control, saline in 5× distilled water (5 DW)
(.smallcircle.): Taxol (18.0 mg/kg of animal weight or approximately 1,260 mg/m^2) suspended in Cremaphor/D5W […]

[3] = tested on: SK-N-SH neuroblastoma cells; assay: XTT dye binding cytotoxicity assay, SK-N-SH; format: cell-based; details: Homo sapiens, neuroblastoma, 72 h, read-out: IC50
Method: as §1, §2

tubulin = assay: Tubulin polymerization-depolymerization (microtubule assembly-disassembly) assay; format: biochemical, calf
[4] = Plasma stability and prodrug reversion (ethyl acetate extraction, HPLC); details: human, plasma
[5] = tested on: PC-3 prostate carcinoma cells; assay: XTT dye binding cytotoxicity assay, PC-3; format: cell-based; details: Homo sapiens, 72 h
Method: as §1, §2

NHDF dermal fibroblast = assay: XTT dye binding cytotoxicity assay, NHDF; format: cell-based; details: Homo sapiens, dermal fibroblast (untransformed), 72 h, read-out: IC50
Method: as §1, §2

[6] = tested on: M-24 metastatic melanoma cells; assay: XTT dye binding cytotoxicity assay, M-24; format: cell-based; details: Homo sapiens, M24; M-24, melanoma-metastatic; 72 h; read-out: IC50
Method: as §1, §2

U-2511 CNS cancer cells = assay: XTT dye binding cytotoxicity assay, U-2511; format: cell-based; details: Homo sapiens; U-2511, CNS cancer; 72 h; read-out: IC50
Method: as §1, §2

[7] = tested on: PC-3 prostate carcinoma tumor xenograft; details: in vivo
Method: as §3
(§4) The tumor model was generated from an ATTC PC-3 prostate carcinoma cell line that was maintained under standard cell proliferation conditions, viz. 37° C., 5% carbon dioxide in sterile air. Each cohort was comprised of eight randomly chosen female athymic nude mice, for a total population size of twenty four. Hemocytometer counted cells, suspended in Hanks mediun (Gibco, Grand Island N.Y.) were implanted S.C. (10^6 cells in 0.4 mL per mouse). Solid tumor growth was measured on each third day. Equimolar amounts of the test compounds (1.0 mM, 400 μL) were injected i.p. on days 1, 3, 5, 7, 9, and 11 using the following media:
(§5) (.smallcircle.): Control, 5% dextrose in 5× distilled water (5 DW)
(§6) (Δ): Taxol (18.0 mg/kg of animal weight or approximately 1.260 mg/m^2) suspended in Cremaphor/D5W
(§7) Inferences about efficacy were drawn by ANOVA followed by protected t-test. […] Data shown as mean value with standard error.

intact Molt-4 cells = assay: Competition binding of tritiated compounds to intact Molt-4 cells; parameters: species or system human
Method: The competition by nonradioactive taxol or c-2'-MPA-taxol for the binding of 1×10^-9 M tritiated compounds by intact Molt-4 cells is illustrated in FIG. 3. Tritiated taxol (Moravek Corp.) was treated with 2-fluoropyridiunium tosylate according to the method of Nicolaou et al. to yield the C-2'-MPT-^3 H-taxol. (Angew. Chem., Int. Ed. 1994: vol. 34, pp. 1583-1587.) Six well plates were incubated with 10^6 Molt-4 cells in 50 mM phosphate buffered saline (PBS) or PRPMI media to which 10^-9 M of the radiolabeled taxol or taxol onium salt was added together with increasing concentrations of nonradiolabeled compound. After 30 minutes, the cells were centrifuged, washed with PBS and 1% SDS was added. […] Alternatively, the cells may be lysed by sonication.

[8] = tested on: PC-3 prostate carcinoma tumor xenograft; assay: PC-3 prostate tumor xenograft in nude mice
Method: as §3, §4, §5, §6, §7

[9] = tested on: UCLA-P3 lung carcinoma cells; assay: XTT dye binding cytotoxicity assay, UCLA-P3; format: cell-based; details: Homo sapiens, UCLA P-3, 72 h
Method: as §1, §2

tumor cell lines = assay: Cytotoxicity, summary over tumor cell lines (XTT); format: cell-based, human and murine; details: on average
Method: Antiproliferative activities of the onium salts were determined using the XTT dye binding assay. Cells were harvested with trypsin/EDTA (Irvine Scientific), washed, resuspended in the appropriate medium, and counted in a hemocytometer using Trypan Blue to determine viability. […] After 72 hours, XTT binding dye was added and incubation was continued for 4 hours. The inhibition of cell proliferation was quantified using a Molecular Devices Microplate Reader. […] The concentration of drug which inhibited growth of cells by 50% was calculated from duplicated determinations.

[10] = tested on: Ovcar 3 ovarian carcinoma tumor xenograft
Method: as §3
The tumor model was generated from an ATTC Ovcar 3 carcinoma cell line that was maintained under standard cell proliferation conditions, viz. 37° C., 5% carbon dioxide in sterile air. Each cohort was comprised of eight randomly chosen female athymic nude mice, for a total population size of twenty four. Hemocytometer counted cells, suspended in Hanks medium (Gibco, Grand Island N.Y.) were implanted S.C. (10^6 cells in 0.4 mL per mouse). Solid tumor growth was measured on each third day. Equimolar amounts of the test compounds (1.0 mM, 400 μL) were injected i.p. on days 1, 3, 5, 7, 9, and 11 using the following media:
(.quadrature.): Control, saline in 5× distilled water (D5W) […]

[11] = tested on: A-549 lung carcinoma cells; assay: XTT dye binding cytotoxicity assay, A-549; format: cell-based; details: Homo sapiens, A549; A-549, lung carcinoma; 72 h; read-out: IC50
Method: as §1, §2

[12] = tested on: HL-60 promyelocytic leukemia cells; assay: XTT dye binding cytotoxicity assay, HL-60; format: cell-based; details: Homo sapiens; HL-60, promyelocytic leukemia; 72 h; read-out: IC50
Method: as §1, §2

L-1210 leukemia cells = assay: XTT dye binding cytotoxicity assay, L-1210; format: cell-based, mouse; details: L1210; L-1210, mouse leukemia; 72 h; read-out: IC50
Method: as §1, §2

[13] = tested on: 786-0 renal cell carcinoma cells; assay: XTT dye binding cytotoxicity assay, 786-0; format: cell-based; details: Homo sapiens; 786-0, renal cell carcinoma; 72 h; read-out: IC50
Method: as §1, §2

[14] = tested on: Molt-4 T-cell leukemia cells; assay: XTT dye binding cytotoxicity assay, Molt-4; format: cell-based; details: Homo sapiens; Molt-4, T-cell leukemia; 72 h; read-out: IC50
Method: as §1, §2

[15] = Toxicity and survival in vivo (tumor bearing nude mice)
[16] = tested on: SIHA squamous carcinoma cells; assay: XTT dye binding cytotoxicity assay, SIHA; format: cell-based; details: Homo sapiens; SIHA, squamous carcinoma; 72 h; read-out: IC50
Method: as §1, §2

[17] = tested on: Capan 1 pancreas cancer cells; assay: XTT dye binding cytotoxicity assay, Capan 1; format: cell-based; details: Homo sapiens; Capan 1, pancreas cancer; 72 h; read-out: IC50
Method: as §1, §2

[18] = Comparative toxicities (lethality) in mice; details: in vivo

Structure (SMILES): CC(=O)O[C@H]1C(=O)[C@@]2(C)[C@H]([C@H](OC(=O)c3ccccc3)[C@]3(O)C[C@H](OC(=O)[C@H](Oc4cccc[n+]4C)[C@@H](NC(=O)c4ccccc4)c4ccccc4)C(C)=C1C3(C)C)[C@]1(OC(C)=O)CO[C@@H]1C[C@@H]2O [Compound 2]
- IC50 (SK-Mel-28 melanoma cells): 87.9 nM
- IC50 [1]: 1.94 nM
- tumor growth inhibition, A549 [2]: inhibited tumor growth nearly completely
- IC50 [3]: 3.19 nM
- tubulin binding in words (tubulin): no tubulin binding
- reversal to tubulin (calcium induced depolymerization) (tubulin; CaCl2, 10^-6 M drug): about 70%
- half-life [4]: 2.4 min
- recovery [4]: 21%
- IC50 [5]: 6.47 nM
- IC50 (NHDF dermal fibroblast): 377 nM
- IC50 [6]: 0.35 nM
- IC50 (U-2511 CNS cancer cells): 860 nM
- mice surviving treatment, PC-3 [7]: all of the mice given either the 2'- or 7-isomers survived
- Kd (intact Molt-4 cells; calculated from slopes of linear portions of curves in FIG. 3, read-out: binding constant): 3000 nM
- affinity in competition assays of intact cells, in words (intact Molt-4 cells; relative to parent taxol): three orders of magnitude below that of the parent taxol
- lower specific binding affinity than taxol (intact Molt-4 cells; relative to taxol): approximately 1000 fold
- antitumor activity, PC-3 ([8]; 1.0 mM, 400 μL i.p., established tumors): regression of established tumors
- complete remission with no palpable tumor mass, PC-3 ([8]; at termination, after 24 days): 5 out of 8 animals
- IC50 [9]: 2.44 nM
- cytotoxicity relative to the C-7-isomer (3) (tumor cell lines): about 10 fold
- tumor growth inhibition, Ovcar-3 ([10]; 1.0 mM, 400 μL i.p. days 1, 3, 5, 7, 9, 11): complete inhibition of tumor growth
- survival of animals, Ovcar-3 ([10]; in vivo): 100%
- IC50 [11]: 152 nM
- IC50 [12]: 0.25 nM
- IC50 (L-1210 leukemia cells): 12.8 nM
- IC50 [13]: 27.4 nM
- IC50 [14]: 7.07 nM
- Toxicity ([15]; Table II, in vivo): low
- % survival ([15]; at end of experiments): 100%
- in vivo tolerance / toxicity in words ([15]; nude mice): well tolerated, showing no visible toxic side effects and no significant weight loss
- IC50 [16]: 3.78 nM
- IC50 [17]: 5.7 nM
- in vivo toxicity relative to taxol or taxotere [18]: much less toxic in vivo than taxol or taxotere
- Toxicity ([18]; mouse): minimal toxicity
- lethality ([18]; mouse): no lethality
